Consider 4 molecules from patent publication US20120178089A1, “MATERIALS AND METHODS FOR THE IDENTIFICATION OF DRUG-RESISTANT CANCERS AND TREATMENT OF SAME” (priority 2009, published 2012).

“Also recorded” adds a separate entry of the source.

Assay [1] deals with NEK2-transfected ARP1, KMS28PE, H1299, MCF7, and MDA231 cells. As to the kind of experiment: Treatment of NEK2-overexpressing cancer cells with chemotherapeutic drugs. It counts as cell-based. The note with it: 48 hours; for growth inhibition in NEK2-transfected cells compared with EV-transfected controls: P<0.05; for cell death in NEK2-transfected cells compared with EV-transfected controls: P<0.05, data not shown. The protocol: Treatment of NEK2-overexpressing MM cells with chemotherapeutic drugs. To determine the role of NEK2 in cancer drug-resistance, ARK, KMS28PE, OCI-MY5, H1299, and MCF7 cell lines were transfected with NEK2-cDNA to overexpress NEK2 by lentivirus expression vector system. 1×10^6 cells were treated with bortezomib at 5 nM for 48 hours in the cultures. Cell proliferation was evaluated by cell counting with a hemocytometer, and dead cells were determined by trypan blue staining, from which dead-cell fraction was calculated. Untreated cells and empty-vector (EV)-transfected cells with or without drug-treatment were used as controls.
To determine whether NEK2 over-expression is sufficient to confer drug-resistance in cancer cells, NEK2-transfected ARP1, KMS28PE, H1299, MCF7, and MDA231 cells were then treated with bortezomib at the dose of 4, 8, and 16 nM bortezomib for 48 hours and cell death was evaluated. EV-transfected cells with or without bortezomib served as controls.

Assay [2] deals with 5TGM1 cells. The experiment in a line: Bortezomib treatment of bortezomib-resistant and wild-type 5TGM1 cells. It counts as cell-based.
In assay [3] the test system is 5TGM1 multiple myeloma cells. The experiment in a line: Efficacy of KP372-1 in a mouse model of multiple myeloma. The following applies: for tumor burden (tumor volumes): FIG. 10b. It counts as in vivo, C57BL/KaLwRij mice. The protocol: Efficacy of KP372-1 in a mouse model of multiple myeloma. C57BL/KaLwRij mice (n=5 in each group) were injected with 1×10^6 5TGM1 cells through their tail vein. Seven days following tumor inoculation, tumor-bearing mice were treated with KP372-1, bortezomib or a combination of KP372-1 with bortezomib.
KP372-1 (NI-2) was used to treat 8 mice in each study group including four groups with single agent or combination with bortezomib (velcade). 1×10^6 5TGM1 multiple myeloma cells (in 100 μL PBS) were injected into each mouse through the tail vein and tumors were allowed to grow for 1 week. Treatment with bortezomib (1 mg/kg, 2 times/week, sc), NI-2 (0.8 mg/kg 3 times/week, sc), and the combination of KP372-1 (NI-2) with bortezomib (velcade) was performed 1 week after injection.
We also developed a bortezomib-resistant 5TGM1 line (5TGM1-DR) using a stepwise increase of the bortezomib concentration in the cultures. […] We examined the effects of KP372-1 treatment on the growth of 5TGM1 myeloma mouse. KP372-1 was given to 8 mice in each of the five groups, including single agent or combination treatment with bortezomib: 5TGM1-WT, 5TGM1-DR, 5TGM1-DR+KP372-1 (0.8 mg/kg, 3 times/week, s.c), 5TGM1-DR+bortezomib (1 mg/kg, 2 times/week, s.c), 5TGM1-DR+bortezomib+KP372-1.

The subject of assay [4] is ARP1 cells. As to the kind of experiment: Bortezomib treatment of bortezomib-resistant and parental ARP1 cells. It counts as cell-based. From the text: (§1) To test the role of NEK2 in promoting cell growth, we over-expressed NEK2 in normal fibroblasts BJ, the MM cell lines ARP1, KMS28PE, and OCI-MY5, the lung cancer cell line H1299, and breast cancer cell line MDA231 by lentivirus-mediated NEK2-cDNA transfection (FIG. 2a). […] We subsequently examined the role of NEK2 in myeloma drug-resistance. We developed 2 bortezomib-resistant MM cell lines, RPMI 8226 and ARP1, by a stepwise increase of the bortezomib concentration in cultures.

The test system of assay [5] is KMS28PE and ARP1 cells, bortezomib-resistant (vel-R) and bortezomib-sensitive. The experiment in a line: KP372-1 treatment of bortezomib-resistant and bortezomib-sensitive myeloma cell lines. It counts as cell-based. The protocol:
FIGS. 9a-9d are a series of graphs showing the treatment with KP372-1 overcomes drug-resistance in cancer cells. The myeloma cell lines KMS28PE (A & B) and ARP1 (C & D) including both bortezomib-sensitive and bortezomib-resistant (vel-R) were treated with KP372-1 at concentrations of 1 μM and 5 μM for 5 days.
To determine whether the NEK2 inhibitor KP372-1 can overcome drug resistance in KMS28PE- and ARP1-bortezomib resistant myeloma cell lines, we treated with KP372-1 at concentrations of 1 μM and 5 μM.

Assay [6] deals with RPMI8226 cells. The experiment in a line: Bortezomib treatment of bortezomib-resistant and parental RPMI8226 cells. It counts as cell-based. The note with it: Homo sapiens.
Excerpt: as §1

Assay [7] relates to NEK2-transfected OCI-MY5, H1299 and MCF7 cells and EV control cells. As to the kind of experiment: Cytotoxic effects of KP372-1 on NEK2-overexpressing cell lines. It counts as cell-based. The note with it: 5 μM, 5 days. Here is the method:
Cell proliferation assay. Briefly, cancer cells transfected with NEK2 cDNA or NEK2 shRNA and their relative controls of empty vector or Scrambled shRNA were seeded in 12-well plates at 0.2×10^6 per well. All tests were set in triplicate or quadruplicate. Cultured cells were counted with a hemocytometer to evaluate cellular proliferation, and dead cells were determined by trypan blue staining, from which dead-cell fraction was calculated. Cell proliferation assays were done at various time points for at least one week after infection or addition doxycycline one day.
We then determined the cytotoxic effects of this compound KP372-1 on the NEK2-overexpressing myeloma cell lines. Cultures of cell lines transfected with a vector for overexpression of NEK2 (myeloma OCI-MY5, a lung cancer cell line H1299, and a breast cancer cell line MCF7) were treated with 5 μM KP372-1 for 5 days. Cell proliferation and cell death were evaluated. Empty vector (EV)-transfected cancer cells with or without treatment were used as controls.

The target of assay [8] is Purified recombinant NEK2 kinase protein (Homo sapiens, UniProt P51955). The note with it: read-out: IC50 (NEK2 kinase activity, titration assays); titration of screening hits. Here is the method:
NEK2 kinase activity assay. Purified recombinant NEK2 kinase protein (Cell Signaling Technology, Beverley, Mass.), was added to 96 well plates in the appropriate reaction buffer. Compounds were added to each well to a final concentration of 5 μM. Reaction mixtures were incubated for 15 minutes. The Kinase-Glo Luminescent Kinase Assay kit (Promega, Madison, Wis.) was used to determine the remaining ATP, which is inversely related to kinase activity.
By NEK2 kinase activity assay, we screened a Kinase Inhibitor Library from Calbiochem Inc. (San Diego, Calif.).

Assay [9] deals with NEK2 expression in MM, lung cancer and breast cancer cells. As to the kind of experiment: Inhibition of NEK2 expression in cancer cell lines (western blots). It counts as cell-based. The following applies: especially NEK2 over-expressed. Here is the method: FIG. 7a is a graph showing the results of screening a Kinase Inhibitor Library.
Western Blots. Western blots were performed to examine the protein levels in MM cells as previously described in Xiong, W., et al. Blood 112, 4235-4246 (2008) and Zhan, F., et al. Blood 109, 4995-5001 (2007). NEK2 antibodies were purchased from BD Biosciences Pharmingen (San Jose, Calif.); and all other primary antibodies were purchased from Cell Signaling Technology (Beverly, Mass.). β-actin was used to normalize the amount of protein in each sample.

Setting [10] is: NEK2-transfected and EV control cells.
Setting [11] is: KP372-1 1 μM and 5 μM, 5 days, both vel-R and sensitive lines.

Chain of Purified recombinant NEK2 kinase protein (P51955 whole entry): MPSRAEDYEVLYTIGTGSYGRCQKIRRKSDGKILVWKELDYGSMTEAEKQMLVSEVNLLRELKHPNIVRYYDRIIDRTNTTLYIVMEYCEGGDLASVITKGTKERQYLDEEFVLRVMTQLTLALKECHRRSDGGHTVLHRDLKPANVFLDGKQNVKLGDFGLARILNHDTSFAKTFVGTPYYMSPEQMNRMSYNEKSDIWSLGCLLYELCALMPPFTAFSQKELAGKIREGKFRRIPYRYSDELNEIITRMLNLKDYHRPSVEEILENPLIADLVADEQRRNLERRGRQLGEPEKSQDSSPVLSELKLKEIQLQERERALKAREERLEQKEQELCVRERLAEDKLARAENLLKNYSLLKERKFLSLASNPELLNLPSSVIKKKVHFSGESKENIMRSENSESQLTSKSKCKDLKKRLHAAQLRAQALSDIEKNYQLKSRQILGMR

As for `COc1cccc2c1C(=O)c1c(O)c3c(c(O)c1C2=O)C[C@@](O)(C(=O)CO)C[C@@H]3O[C@H]1C[C@H](N)[C@H](O)[C@H](C)O1` [doxorubicin], in assay [1] (100 nM), the “growth inhibition in NEK2-transfected cells compared with EV-transfected controls” value is recorded as “significantly less growth inhibition” and the “cell death in NEK2-transfected cells compared with EV-transfected controls” value is reported as “significantly less”.

Consider `CC(C)C[C@H](NC(=O)[C@H](Cc1ccccc1)NC(=O)c1cnccn1)B(O)O` [bortezomib], for which the IC50 in [2] (5TGM1, 5TGM1-R (bortezomib-resistant)) was 250 nM; in assay [2] (5TGM1, wild-type 5TGM1 cells (5TGM1-WT)), 5.26 nM; in [4] (ARP-1, bortezomib-resistant ARP1 cells) it was 25.8 nM; in assay [4] (ARP-1, parental ARP1 cells), 7.47 nM; in assay [6] (RPMI-8226, parental RPMI8226 cells) it was 4.75 nM; in assay [6] (bortezomib-resistant RPMI8226 cells), 250 nM. The “tumor burden (tumor volumes)” value in assay [3] (P<0.05) is “reduced tumor burden”. Besides, the “growth inhibition in NEK2-transfected cells compared with EV-transfected controls” value in assay [1] (8 nM) was “significantly less growth inhibition”. For the same molecule, in assay [5] (bortezomib treatment), the “cell death in drug-resistant cells compared with parental controls” value is “significantly less growth inhibition and cell death”. Besides, the “growth inhibition in drug-resistant cells compared with parental controls” value in [5] (bortezomib treatment) is “significantly less growth inhibition”.

As to `O=C1c2ccccc2-c2nc3nnnn3nc21.O=C1c2ccccc2-c2nn3nnnc3nc21` [KP372-1], the “anti-proliferative and apoptotic activity, NEK2-transfected versus EV control cells” value in assay [7] was “stronger anti-proliferative and apoptotic activity in the NEK2-transfected cells than the EV control cells”. For the same molecule, the cell death result was “induced significantly cell death; also recorded: induced cell growth inhibition and death” in [7] (setting [10]); “cell death” in [5] (setting [11]). Moreover, the growth inhibition result is “induced significantly cell death and growth inhibition” in assay [7] (setting [10]); “significant growth inhibition” in assay [5] (setting [11]). In assay [3] (P<0.05), the “tumor burden (tumor volumes)” value is given as “reduced tumor burden”. Moreover, the “mouse survival, 5TGM1-DR mice” value in assay [3] (KP372-1 0.8 mg/kg, 3 times/week, s.c, P<0.01) was “able to overcome drug resistance and extend mouse survival”. Moreover, in assay [3] (NI-2 0.8 mg/kg 3 times/week sc, bortezomib 1 mg/kg 2 times/week sc, start 1 week after injection, P<0.05), the “growth of 5TGM1 tumors compared with untreated control” value is “significantly inhibited the growth of 5TGM1 tumors”. Moreover, the IC50 in [8] is 67 nM. For the same molecule, the figures for the NEK2 expression result in [9] and in assay [9] (listed as NI-2) were “significantly inhibits NEK2 expression” and “inhibits NEK2 expression”, respectively.

With `COc1cc([C@@H]2c3cc4c(cc3[C@@H](O[C@@H]3O[C@@H]5CO[C@@H](C)O[C@H]5[C@H](O)[C@H]3O)[C@H]3COC(=O)[C@H]23)OCO4)cc(OC)c1O` [etoposide], in assay [1] (100 nM), the “growth inhibition in NEK2-transfected cells compared with EV-transfected controls” value is on record as “significantly less growth inhibition” and the “cell death in NEK2-transfected cells compared with EV-transfected controls” value was “significantly less”.
